We go through 1 molecule from patent US20020038064A1, “Colorless petroleum marker dyes” (priority 2000, published 2002).

The data set in a line: Water extraction test of 10 ppm marker solution in kerosene. Format: physicochemical. As to conditions: 10 mL of 10 ppm solution in kerosene stirred with 10 mL water for ½ hour; layers separated, 2 mL developer added to each layer. The procedure:
A marker solution was prepared by dissolving a 100 mg portion of the residue in xylenes (100 mL), and diluting 1 mL of the resulting solution to 100 mL with kerosene to make a 10 ppm solution.
A developer was made by dissolving 1 g of a 40% solution of benzyltrimethylammonium hydroxide in methanol in 99 g of 2-ethyl-1-hexanol. To a 10 mL portion of the 10 ppm marker solution prepared above was added 2.5 mL of the developer. […] If necessary, quantitative determination of the marker concentration can be accomplished by measuring the absorbance of the solution at a wavelength of 581 nm.
A 10 mL portion of the 10 ppm solution prepared above was stirred with 10 mL of water for ½ hour and the layers were separated. […] Addition of 2 mL of developer solution to the water layer gave no color.

As to `CCCC(=O)Oc1ccc(C2(c3ccc(OC(=O)CCC)c(C)c3)OC(=O)c3ccccc32)cc1C` [Example 1, Di-n-Butyl Ester of o-Cresolphthalein], the “extraction of the marker into the water layer” value is on record as “not extracted into the water layer”.
